The values below come from patent US20070270418A1, “Inhibitors of P38 and Methods of Using the Same” (priority 2003, published 2007).

Where two headings read alike, the source gives them in different places.

In assay [1] the target is T1, MAPK2 (Homo sapiens, UniProt P28482).
T1 construct: purchased Upstate (Charlottesville, Va.)
The assay is described as follows: Broad selectivity panel, 32P incorporation. In kind it is biochemical. To be noted: 40 μM ATP, read-out: Percent inhibition MAPK2; for inhibition at 0.1 µM: 0.1 μM compound; for inhibition at 1 µM: 1 μM compound. The protocol: (§1) Various compounds of the present invention are screened against a panel of 24 additional kinases (Upstate, Charlottesville, Va.). Compounds are tested 0.1 μM and 1 μM in reactions containing 40 μM ATP. Incorporation of radiolabeled phosphate (^32P) into each kinase substrate is measured in the presence and absence of test compound. Results are reported as the percent decrease in the amount of ^32P incorporated into the substrate in the presence of compound, compared to buffer control.

Assay [2] has as its target T2, PDGFR α (Homo sapiens, UniProt P16234).
T2 construct: purchased Upstate (Charlottesville, Va.)
The assay can be described thus: Broad selectivity panel, 32P incorporation. In kind it is biochemical. To be noted: 40 μM ATP, read-out: Percent inhibition PDGFR α; for inhibition at 0.1 µM: 0.1 μM compound; for inhibition at 1 µM: 1 μM compound. The method, then: as §1

In assay [3] the target is T3, c-RAF (Homo sapiens, UniProt P04049).
T3 construct: purchased Upstate (Charlottesville, Va.)
The assay is described as follows: Broad selectivity panel, 32P incorporation. It counts as biochemical. The conditions noted are these: 40 μM ATP, read-out: Percent inhibition c-RAF; for inhibition at 0.1 µM: 0.1 μM compound; for inhibition at 1 µM: 1 μM compound. The method, then: as §1

Assay [4] concerns the target T4, JNK1α1 (Homo sapiens, UniProt P45983).
T4 construct: purchased Upstate (Charlottesville, Va.)
The assay is described as follows: Broad selectivity panel, 32P incorporation. To be noted: 40 μM ATP, read-out: Percent inhibition JNK1α1; for inhibition at 0.1 µM: 0.1 μM compound; for inhibition at 1 µM: 1 μM compound. In kind it is biochemical. The method, then: as §1

In assay [5] the target is T5, GSK3β (Homo sapiens, UniProt P49841).
T5 construct: purchased Upstate (Charlottesville, Va.)
The assay can be described thus: Broad selectivity panel, 32P incorporation. In kind it is biochemical. To be noted: 40 μM ATP, read-out: Percent inhibition GSK3β; for inhibition at 0.1 µM: 0.1 μM compound; for inhibition at 1 µM: 1 μM compound. The method, then: as §1

Assay [6] addresses T6, PKBβ (Homo sapiens, UniProt P31751).
T6 construct: purchased Upstate (Charlottesville, Va.)
The assay can be described thus: Broad selectivity panel, 32P incorporation. The conditions noted are these: 40 μM ATP, read-out: Percent inhibition PKBβ; for inhibition at 0.1 µM: 0.1 μM compound; for inhibition at 1 µM: 1 μM compound. It counts as biochemical. The protocol:
as §1

Assay [7] deals with collagen-induced arthritis in rats. The assay is described as follows: In vivo established type II collagen arthritis study. To be noted: Rattus norvegicus, po, oral gavage bid, days 1-7 of arthritis. Set-up: species or system Female Lewis rats. The method, then: Compounds are tested in the collagen-induced model of arthritis in rats. Female Lewis rats (0.16-0.2 kg) are injected subcutaneously at the base of the tail and two sites on the back on day 0 and 6 with 300 μl of Freund's Incomplete Adjuvant containing 2 mg/ml of Bovine Type II Collagen. On day 9 of the study, caliper measurements of both hind leg ankle joints are performed. This measurement is considered the normal, pre-disease measurement. When ankle swelling is clearly established in at least one hind paw (caliper measurement increase from 0.263 to 0.282 inches), rats are enrolled into the treatment phase of the study. This occurs on day 10 or 11 of the study and is considered to be day 1 of arthritis. Enrolled animals are randomized and administered vehicle control or compound (1, 3.3, 10, or 30 mg/kg, bid), unless otherwise indicated, or dexamethasone (0.0375 mg/kg, bid) via oral gavage on days 1-7 of arthritis (treatment days). Ankle diameters are measured on each day of treatment. Mean increases in ankle diameter for 7 lead compounds are shown below in FIGS. 3-9.
Following sacrifice on day 7, both hind paws are removed from each animal and weighed. Knees and ankles from all animals in all groups are preserved, decalcified in 5% formic acid and trimmed into two approximately equal longitudinal (ankles) or frontal (knees) halves, dehydrated, cleared, infiltrated, and embedded in paraffin. Blocks are sectioned and stained with Toluidine Blue.
Tissues are examined microscopically and scored for knee and ankle inflammation (cellular infiltration), pannus formation and infiltration, cartilage damage (loss of Toluidine staining and collagen disruption) and bone resorption. Scoring is on a scale from 0-5, where a score of 0 is normal and a score of 5 indicates severe damage or evidence of disease or both.

In assay [8] the target is T7, p38β (Homo sapiens, UniProt Q15759).
T7 construct: p38 MAP Kinases are recombinant human full-length proteins with an amino-terminal GST fusion; GST (N); purchased Upstate (Charlottesville, Va.); host or cells: E. coli
The assay can be described thus: Kinase selectivity, ATF2 phosphorylation ELISA. In kind it is biochemical. The protocol:
All kinases and the substrate ATF2 are acquired from Upstate (Charlottesville, Va.). p38 MAP Kinases are recombinant human full-length proteins with an amino-terminal GST fusion, expressed in and purified from E. coli. ATF2 is a GST fusion protein containing amino acids 19-96 of human ATF2 expressed in E. coli. All proteins were aliquoted and stored at −80° C.
p38 MAP Kinase assays are performed using an assay buffer containing 25 mM HEPES, pH 7.5, 10 mM MgCl2, 2 mM DTT, 20 mM β-glycerophosphate, 0.1 mM Na3VO4, 40 μM ATP and 1.25 μM of ATF2, together with 6 ng of p38α protein, 12 ng p38β protein, 1.5 ng p38γ, or 0.4 ng JNK2α2. Compounds are serially diluted in DMSO and 2 μL of test compound at 25× final concentration is used. The vehicle control receives DMSO only. Test compounds are pre-incubated with 20 μl of enzyme in kinase buffer (25 mM HEPES, pH 7.5, 10 mM MgCl2, 2 mM DTT, 20 mM 3-glycerophosphate and 0.1 mM Na3VO4) at room temperature for 15 minutes. […] The reactions are incubated for 30 minutes at 37° C. and terminated by the addition of 18 μl of 200 mM EDTA. An ELISA method is used to measure the phosphorylation of ATF2 at Thr 69. High binding 96-well plates (Corning 3369) are coated with 50 μl of kinase reaction for 1 hour at 37° C. The coated plates are washed with 200 μl washing buffer (25 mM Tris HCl, pH 8.3, 192 mM glycine, 0.1% SDS and 0.05% Tween-20) three times. The plates are then washed three times with SuperBlock in TBS (Pierce, 37535). After blocking, plates are incubated with 50 μl of rabbit anti-phospho-ATF2 antibody (Cell Signaling, 9221 L, 1:500) for 30 minutes at 37° C. Plates are washed three times with washing buffer prior to incubation with 50 μl HRP-conjugated goat anti-rabbit antibody (Cell Signaling, 7074, 1:500) for 30 minutes at 37° C. Plates are then washed three times with washing buffer before incubation with 50 μl of Ultra TMB-ELISA (Pierce, 34028) for 8 minutes at room temperature. Finally, 50 μl of phosphoric acid (1 M) is added to stop reactions and plate absorbance is read at 450 nm on a SpectraMax 250 plate reader.
A selectivity panel is used to test the cross-reactivity of compounds of the invention with the β and γ isoforms of p38 MAP kinase, Src^p60 and JNK2α2. The p38β, p38γ, and JNK2α2 assays are described in Example 4. The Src^p60 assay measures the ability of compounds to inhibit Src^p60-catalyzed phosphorylation of a peptide substrate.

Setting [9] is: first column so headed (c3), read-out: ED50 summed ankle histology.
[10] abbreviates: second column so headed (c4), read-out: ED50 summed ankle histology.

T3 sequence (P04049 whole entry, species assumed): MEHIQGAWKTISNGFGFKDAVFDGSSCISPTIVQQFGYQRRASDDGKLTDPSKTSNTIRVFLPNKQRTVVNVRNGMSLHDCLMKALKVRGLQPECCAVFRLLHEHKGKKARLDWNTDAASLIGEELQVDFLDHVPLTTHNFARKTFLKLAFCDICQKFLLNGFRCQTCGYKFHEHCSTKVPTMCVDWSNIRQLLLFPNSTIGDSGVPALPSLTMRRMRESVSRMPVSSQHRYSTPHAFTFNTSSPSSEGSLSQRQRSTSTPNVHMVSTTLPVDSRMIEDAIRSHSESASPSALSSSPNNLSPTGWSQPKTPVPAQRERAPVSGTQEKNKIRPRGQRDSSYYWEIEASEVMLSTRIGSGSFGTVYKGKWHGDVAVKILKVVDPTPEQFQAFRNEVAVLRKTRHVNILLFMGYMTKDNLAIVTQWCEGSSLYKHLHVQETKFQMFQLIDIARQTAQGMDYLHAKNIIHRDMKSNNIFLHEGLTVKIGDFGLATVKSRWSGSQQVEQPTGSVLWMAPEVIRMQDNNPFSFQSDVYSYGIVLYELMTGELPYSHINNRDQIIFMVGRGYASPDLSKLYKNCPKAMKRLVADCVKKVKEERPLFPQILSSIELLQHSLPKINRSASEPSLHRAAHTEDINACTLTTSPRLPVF
T2 sequence (P16234 24-1089, species assumed): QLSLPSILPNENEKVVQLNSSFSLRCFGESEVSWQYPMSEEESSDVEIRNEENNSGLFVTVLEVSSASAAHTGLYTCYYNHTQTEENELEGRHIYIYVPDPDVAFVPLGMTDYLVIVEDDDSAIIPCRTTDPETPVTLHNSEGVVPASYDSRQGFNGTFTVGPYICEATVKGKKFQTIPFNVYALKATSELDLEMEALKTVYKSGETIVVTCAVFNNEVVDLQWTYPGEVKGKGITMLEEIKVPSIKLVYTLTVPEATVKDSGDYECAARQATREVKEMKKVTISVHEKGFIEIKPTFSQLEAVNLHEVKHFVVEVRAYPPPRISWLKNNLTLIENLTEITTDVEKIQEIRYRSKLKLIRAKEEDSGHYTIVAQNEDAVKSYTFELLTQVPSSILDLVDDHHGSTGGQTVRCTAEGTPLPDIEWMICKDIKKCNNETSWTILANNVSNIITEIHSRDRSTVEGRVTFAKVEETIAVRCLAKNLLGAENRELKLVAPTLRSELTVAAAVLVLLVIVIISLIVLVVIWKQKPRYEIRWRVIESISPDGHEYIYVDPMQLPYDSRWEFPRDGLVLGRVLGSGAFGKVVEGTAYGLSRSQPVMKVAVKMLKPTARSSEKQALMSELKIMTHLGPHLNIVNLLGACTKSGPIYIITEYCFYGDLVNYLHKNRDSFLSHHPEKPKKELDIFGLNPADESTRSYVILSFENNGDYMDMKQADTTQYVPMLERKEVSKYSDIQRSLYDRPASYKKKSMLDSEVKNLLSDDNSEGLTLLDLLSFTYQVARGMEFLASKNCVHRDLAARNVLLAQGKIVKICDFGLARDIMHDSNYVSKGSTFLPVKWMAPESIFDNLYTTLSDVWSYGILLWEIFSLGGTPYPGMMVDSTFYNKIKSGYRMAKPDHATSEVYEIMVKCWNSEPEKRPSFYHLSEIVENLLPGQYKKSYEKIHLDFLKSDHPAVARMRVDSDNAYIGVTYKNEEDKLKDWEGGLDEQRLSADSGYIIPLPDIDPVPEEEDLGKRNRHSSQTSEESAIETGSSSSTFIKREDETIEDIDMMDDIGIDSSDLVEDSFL
T4 sequence (P45983 1-384 isoform P45983-2, species assumed): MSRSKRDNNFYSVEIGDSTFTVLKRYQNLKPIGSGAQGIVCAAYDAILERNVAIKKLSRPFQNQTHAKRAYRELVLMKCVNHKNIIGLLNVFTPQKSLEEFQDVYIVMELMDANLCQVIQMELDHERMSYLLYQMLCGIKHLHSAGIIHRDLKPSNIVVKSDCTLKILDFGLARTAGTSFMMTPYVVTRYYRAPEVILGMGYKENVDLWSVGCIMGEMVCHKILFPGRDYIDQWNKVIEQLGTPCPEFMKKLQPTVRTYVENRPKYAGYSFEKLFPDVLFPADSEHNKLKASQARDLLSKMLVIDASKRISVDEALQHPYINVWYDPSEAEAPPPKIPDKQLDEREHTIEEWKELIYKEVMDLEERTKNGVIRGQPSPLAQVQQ
T5 sequence (P49841 whole entry, species assumed): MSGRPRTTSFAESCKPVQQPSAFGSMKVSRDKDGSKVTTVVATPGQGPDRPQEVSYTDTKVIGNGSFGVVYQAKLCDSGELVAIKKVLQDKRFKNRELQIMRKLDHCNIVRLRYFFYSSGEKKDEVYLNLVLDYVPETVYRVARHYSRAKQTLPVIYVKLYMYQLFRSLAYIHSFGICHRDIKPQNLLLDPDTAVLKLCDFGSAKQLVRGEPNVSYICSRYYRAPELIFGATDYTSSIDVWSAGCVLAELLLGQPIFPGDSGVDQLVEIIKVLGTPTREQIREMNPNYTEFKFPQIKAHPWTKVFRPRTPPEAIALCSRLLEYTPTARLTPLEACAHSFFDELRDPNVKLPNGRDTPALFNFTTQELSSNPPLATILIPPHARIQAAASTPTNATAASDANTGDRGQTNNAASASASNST
T6 sequence (P31751 whole entry, species assumed): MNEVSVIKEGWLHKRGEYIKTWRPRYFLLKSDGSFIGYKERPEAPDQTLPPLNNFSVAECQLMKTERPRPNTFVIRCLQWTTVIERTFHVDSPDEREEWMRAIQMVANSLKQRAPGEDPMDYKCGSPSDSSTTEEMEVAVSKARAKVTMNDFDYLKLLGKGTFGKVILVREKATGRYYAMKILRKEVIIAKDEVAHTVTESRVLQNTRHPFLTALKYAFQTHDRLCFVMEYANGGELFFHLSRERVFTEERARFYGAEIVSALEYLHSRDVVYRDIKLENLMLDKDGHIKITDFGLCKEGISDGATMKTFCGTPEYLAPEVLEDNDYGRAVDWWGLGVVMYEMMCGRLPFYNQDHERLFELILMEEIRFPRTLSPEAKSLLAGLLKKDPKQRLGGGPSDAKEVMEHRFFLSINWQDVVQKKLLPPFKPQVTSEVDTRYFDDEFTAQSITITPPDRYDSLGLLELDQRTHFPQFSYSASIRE
T1 sequence (P28482 whole entry): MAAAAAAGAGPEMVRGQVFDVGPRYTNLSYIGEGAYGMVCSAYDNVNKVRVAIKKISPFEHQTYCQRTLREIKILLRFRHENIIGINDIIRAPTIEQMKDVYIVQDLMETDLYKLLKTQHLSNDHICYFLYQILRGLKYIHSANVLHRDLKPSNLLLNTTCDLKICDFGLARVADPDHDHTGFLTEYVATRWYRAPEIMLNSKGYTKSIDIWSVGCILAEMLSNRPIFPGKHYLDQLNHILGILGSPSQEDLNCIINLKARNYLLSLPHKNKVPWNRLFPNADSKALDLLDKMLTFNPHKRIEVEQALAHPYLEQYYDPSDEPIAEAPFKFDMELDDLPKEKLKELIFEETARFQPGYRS
T7 sequence (Q15759 whole entry, the tested form may be a part): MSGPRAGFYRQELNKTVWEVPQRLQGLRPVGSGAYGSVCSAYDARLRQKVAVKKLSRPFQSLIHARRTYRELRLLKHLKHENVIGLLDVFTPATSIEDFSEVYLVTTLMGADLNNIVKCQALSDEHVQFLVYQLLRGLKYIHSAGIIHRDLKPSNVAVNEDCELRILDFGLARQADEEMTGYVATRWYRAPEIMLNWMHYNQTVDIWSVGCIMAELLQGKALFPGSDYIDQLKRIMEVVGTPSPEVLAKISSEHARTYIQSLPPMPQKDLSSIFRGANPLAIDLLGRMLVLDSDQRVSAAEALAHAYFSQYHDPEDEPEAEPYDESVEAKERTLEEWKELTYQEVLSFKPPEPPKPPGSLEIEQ

The term inhibition denotes the drop in the measured response relative to a control, in per cent. A word on the ED50: it is the midpoint of the dose-response relation. By IC50 is commonly meant the midpoint of a concentration-inhibition curve. Low readings indicate greater potency in that assay, high ones weaker potency in that assay. On to `Fc1ccc(-c2nc3occn3c2-c2ccnc(NC3CCNCC3)n2)cc1` [CCLXXX], for which the inhibition at 0.1 µM in assay [1] was -9%; in assay [2], 1%; in assay [3] it was 21%; in assay [4], -26%; in assay [5], 5%; in assay [6], -18%. Further, the inhibition at 1 µM turned out to be 9% in assay [1]; 8% in assay [2]; 75% in assay [3]; 18% in assay [4]; 14% in assay [5]; 13% in assay [6]. Moreover, the ED50 in assay [7] (setting [9]) is 7.6 mg/kg; in assay [7] (read-out: ED50 ankle diameter), 5.43 mg/kg; in assay [7] (read-out: ED50 paw weights) it was 3.51 mg/kg; in assay [7] (setting [10]) it was 1.04 mg/kg. The 50% inhibitory concentration (IC50) in assay [8] worked out at 0.0954 µM.
Turning to `CN1[C@@H]2CC[C@H]1C[C@@H](Nc1nccc(-c3c(-c4ccc(F)cc4)nc4occn34)n1)C2` [CCLXXXI], the inhibition at 0.1 µM is 10% in assay [1]; 11% in assay [2]; -4% in assay [3]; -13% in assay [4]; 6% in assay [5]; -12% in assay [6]. Besides, the inhibition at 1 µM in assay [1] worked out at 23%; in assay [2], 21%; in assay [3] it was 8%; in assay [4], 6%; in assay [5], 19%; in assay [6], 13%. Moreover, the ED50 in assay [7] (setting [9]) was found to be 0.93 mg/kg; in assay [7] (read-out: ED50 ankle diameter), 0.98 mg/kg; in assay [7] (read-out: ED50 paw weights), 0.94 mg/kg; in assay [7] (setting [10]), 0.2 mg/kg. In addition, the IC50 in assay [8] was 0.0246 µM.
Turning to `CS(=O)(=O)N1CCC(Nc2nccc(-c3c(-c4ccc(F)cc4)nc4occn34)n2)CC1` [CCLXXIX], the inhibition at 0.1 µM is 14% in assay [1]; 0% in assay [2]; 32% in assay [3]; 37% in assay [4]; 15% in assay [5]; 0% in assay [6]. The inhibition at 1 µM in assay [1] was 43%; in assay [2], -9%; in assay [3] it was 83%; in assay [4], 86%; in assay [5], 57%; in assay [6], -30%. For the same compound, the ED50 was found to be 4.29 mg/kg in assay [7] (setting [9]), 2.09 mg/kg in assay [7] (read-out: ED50 ankle diameter), 2.57 mg/kg in assay [7] (read-out: ED50 paw weights) and 0.72 mg/kg in assay [7] (setting [10]). In assay [8], this compound had an IC50 of 0.0018 µM.
`Fc1ccc(-c2nc3occn3c2-c2ccnc(N[C@@H]3CN4CCC3CC4)n2)cc1` [LXXI]: the inhibition at 0.1 µM was -5% in assay [1]; 10% in assay [2]; 7% in assay [3]; -20% in assay [4]; -8% in assay [5]; -42% in assay [6]. Besides, the inhibition at 1 µM was 18% in assay [1]; 9% in assay [2]; 42% in assay [3]; 3% in assay [4]; 10% in assay [5]; -5% in assay [6]. It took 0.114 µM to reach half-maximal inhibition in assay [8] (IC50).
With `Fc1ccc(-c2nc3occn3c2-c2ccnc(N[C@H]3CN4CCC3CC4)n2)cc1` [LXXXVII], the inhibition at 0.1 µM in assay [1] is -4%; in assay [2] it was -6%; in assay [3] it was 15%; in assay [4], -25%; in assay [5], 6%; in assay [6], -26%. The inhibition at 1 µM is 14% in assay [1]; -11% in assay [2]; 58% in assay [3]; 0% in assay [4]; 8% in assay [5]; -29% in assay [6]. Further, the ED50 is 2.07 mg/kg in assay [7] (setting [9]), 1.29 mg/kg in assay [7] (read-out: ED50 ankle diameter), 1.88 mg/kg in assay [7] (read-out: ED50 paw weights) and 0.42 mg/kg in assay [7] (setting [10]). Also, in assay [8], inhibition was half-maximal at 0.15 µM (IC50). In addition, in assay [8], the “selectivity over p38β as compared to p38α” value stood at 17 fold.
Regarding `Fc1ccc(-c2nc3occn3c2-c2ccnc(NC3CN4CCC3CC4)n2)cc1` (centres unmarked) [LXXXIV], the ED50 stood at 2.6 mg/kg in assay [7] (setting [9]), 1.9 mg/kg in assay [7] (read-out: ED50 ankle diameter), 2 mg/kg in assay [7] (read-out: ED50 paw weights) and 0.6 mg/kg in assay [7] (setting [10]). In addition, in assay [8], inhibition was half-maximal at 1.29 µM (IC50).
Consider `CC(=O)N1CCC(Nc2nccc(-c3c(-c4ccc(F)cc4)nc4occn34)n2)CC1` [CCLXXVIII], for which the inhibition at 0.1 µM in assay [1] is 18%; in assay [2] it was 23%; in assay [3], 26%; in assay [4], -13%; in assay [5], 16%; in assay [6] it was -3%. Further, the inhibition at 1 µM in assay [1] was determined as 42%; in assay [2] it was 17%; in assay [3] it was 66%; in assay [4], 61%; in assay [5], 66%; in assay [6], 41%. Also, the ED50 in assay [7] (setting [9]) worked out at 3.09 mg/kg; in assay [7] (read-out: ED50 ankle diameter) it was 2.04 mg/kg; in assay [7] (read-out: ED50 paw weights), 1.55 mg/kg; in assay [7] (setting [10]), 1.24 mg/kg. Half-maximal inhibition in assay [8] (IC50) required 0.0063 µM.
